Assay results published in patent US20210254056A1, “IDENTIFICATION AND TARGETED MODULATION OF GENE SIGNALING NETWORKS” (CAMP4 THERAPEUTICS CORPORATION, priority 2017, published 2021).

System: hepatocytes
Assay: RNA-seq of hepatocytes treated with Phase III failure compounds
Details: hepatocytes
Description: RNA-seq was performed to determine the effects of the compounds on hepatocytes.
Significance was determined by the criteria of FPKM≥0.5, a log 2(fold-change)≥1, and a […].

## CCC(CC)[C@H](NC(C)=O)[C@@H]1[C@H](O)[C@@H](C(=O)O)C[C@H]1NC(=N)N.O.O.O [peramivir (trihydrate), peramivir]
Gene DOLK
  RNA-seq results: DOLK expression: 0.33
Gene DPM3
  RNA-seq results, DPM3 expression: −0.11
  RNA-seq results: DPM3 expression: 0.68
Gene DPYD
  RNA-seq results, DPYD expression: −0.21
  RNA-seq results: DPYD expression: −0.43
Gene DPYS
  RNA-seq results, DPYS expression: −0.01
  RNA-seq results: DPYS expression: −0.27
Gene EARS2
  RNA-seq results, EARS2 expression: 0.04
  RNA-seq results: EARS2 expression: −0.01
Gene EDA
  RNA-seq results, EDA expression: −0.03
  RNA-seq results: EDA expression: 0.3
Gene EHHADH
  RNA-seq results, EHHADH expression: −0.10
  RNA-seq results: EHHADH expression: −0.3
Gene ELAC2
  RNA-seq results, ELAC2 expression: −0.15
  RNA-seq results: ELAC2 expression: −0.13
Gene ENO3
  RNA-seq results, ENO3 expression: 0.30
  RNA-seq results: ENO3 expression: −0.12
Gene ENPP1
  RNA-seq results, ENPP1 expression: −0.28
  RNA-seq results: ENPP1 expression: −0.21
Gene EPG5
  RNA-seq results, EPG5 expression: 0.13
  RNA-seq results: EPG5 expression: 0
Gene EPHX1
  RNA-seq results, EPHX1 expression: −0.26
  RNA-seq results: EPHX1 expression: 0.16
Gene ERCC4
  RNA-seq results, ERCC4 expression: −0.23
  RNA-seq results: ERCC4 expression: −0.18
Gene ERCC6
  RNA-seq results, ERCC6 expression: 0.05
  RNA-seq results: ERCC6 expression: −0.09
Gene ETFB
  RNA-seq results, ETFB expression: 0.23
  RNA-seq results: ETFB expression: 0.14
Gene ETHE1
  RNA-seq results, ETHE1 expression: 0.31
  RNA-seq results: ETHE1 expression: 0.31
Gene F2
  RNA-seq results, F2 expression: 0.11
  RNA-seq results: F2 expression: 0.31
Gene F2RL1
  RNA-seq results, F2RL1 expression: −0.53
  RNA-seq results: F2RL1 expression: 0.01
Gene F5
  RNA-seq results, F5 expression: −0.08
  RNA-seq results: F5 expression: −0.44
Gene F9
  RNA-seq results, F9 expression: −0.53
  RNA-seq results: F9 expression: −0.17
Gene FABP1
  RNA-seq results, FABP1 expression: 0.73
  RNA-seq results: FABP1 expression: −0.05
Gene FADD
  RNA-seq results, FADD expression: −0.14
  RNA-seq results: FADD expression: 0.13
Gene FAM111A
  RNA-seq results, FAM111A expression: −0.08
  RNA-seq results: FAM111A expression: −0.05
Gene FAM111B
  RNA-seq results, FAM111B expression: 0.11
  RNA-seq results: FAM111B expression: −0.44
Gene FAN1
  RNA-seq results, FAN1 expression: −0.06
  RNA-seq results: FAN1 expression: −0.14
Gene FARS2
  RNA-seq results, FARS2 expression: −0.22
  RNA-seq results: FARS2 expression: −0.04
Gene FASLG
  RNA-seq results, FASLG expression: 1.15
  RNA-seq results: FASLG expression: −0.66
Gene FGA
  RNA-seq results, FGA expression: −0.25
  RNA-seq results: FGA expression: −0.37
Gene FGD1
  RNA-seq results, FGD1 expression: −0.25
  RNA-seq results: FGD1 expression: 0.14
Gene FGFR2
  RNA-seq results, FGFR2 expression: −0.13
  RNA-seq results: FGFR2 expression: −0.42
Gene FIG4
  RNA-seq results, FIG4 expression: −0.30
  RNA-seq results: FIG4 expression: 0.3
Gene FIS1
  RNA-seq results, FIS1 expression: 0.44
  RNA-seq results: FIS1 expression: 0.25
Gene FTCD
  RNA-seq results, FTCD expression: 0.58
  RNA-seq results: FTCD expression: 0.43
Gene FTH1
  RNA-seq results, FTH1 expression: −0.04
  RNA-seq results: FTH1 expression: 0.7
Gene FUCA1
  RNA-seq results, FUCA1 expression: −0.23
  RNA-seq results: FUCA1 expression: 0.07
Gene FXN
  RNA-seq results, FXN expression: −0.69
  RNA-seq results: FXN expression: 0.12
Gene G6PC3
  RNA-seq results, G6PC3 expression: 0.06
  RNA-seq results: G6PC3 expression: 0.29
Gene G6PC
  RNA-seq results, G6PC expression: 0.23
  RNA-seq results: G6PC expression: 0.01
Gene G6PD
  RNA-seq results, G6PD expression: 0.08
  RNA-seq results: G6PD expression: 0.59
Gene GALK1
  RNA-seq results, GALK1 expression: 0.18
  RNA-seq results: GALK1 expression: 0.34
Gene GALK2
  RNA-seq results, GALK2 expression: −0.13
  RNA-seq results: GALK2 expression: −0.11
Gene GALT
  RNA-seq results, GALT expression: 0.15
  RNA-seq results: GALT expression: 0.26
Gene GATA6
  RNA-seq results, GATA6 expression: −0.08
  RNA-seq results: GATA6 expression: −0.02
Gene GATM
  RNA-seq results, GATM expression: −0.37
  RNA-seq results: GATM expression: −0.37
Gene GBA
  RNA-seq results, GBA expression: −0.19
  RNA-seq results: GBA expression: 0.27
Gene GBE1
  RNA-seq results, GBE1 expression: −0.20
  RNA-seq results: GBE1 expression: −0.08
Gene GCH1
  RNA-seq results, GCH1 expression: −0.27
  RNA-seq results: GCH1 expression: −0.25
Gene GCKR
  RNA-seq results, GCKR expression: 0.29
  RNA-seq results: GCKR expression: 0.32
Gene GCLC
  RNA-seq results, GCLC expression: −0.18
  RNA-seq results: GCLC expression: −0.14
Gene GGCX
  RNA-seq results, GGCX expression: 0.10
  RNA-seq results: GGCX expression: −0.22
Gene GHR
  RNA-seq results, GHR expression: −0.27
  RNA-seq results: GHR expression: −0.6
Gene GJB2
  RNA-seq results, GJB2 expression: −0.37
  RNA-seq results: GJB2 expression: 0.1
Gene GLDC
  RNA-seq results, GLDC expression: 0.02
  RNA-seq results: GLDC expression: −0.33
Gene GLIS3
  RNA-seq results, GLIS3 expression: −0.13
  RNA-seq results: GLIS3 expression: −0.41
Gene GLS2
  RNA-seq results, GLS2 expression: −0.24
  RNA-seq results: GLS2 expression: −0.06
Gene GLYCTK
  RNA-seq results, GLYCTK expression: 0.32
  RNA-seq results: GLYCTK expression: 0.43
Gene GNE
  RNA-seq results, GNE expression: −0.21
  RNA-seq results: GNE expression: −0.11
Gene GNPTAB
  RNA-seq results, GNPTAB expression: −0.49
  RNA-seq results: GNPTAB expression: −0.13
Gene GOSH
  RNA-seq results, GOSH expression: −0.17
  RNA-seq results: GOSH expression: 0.44
Gene GPC3
  RNA-seq results, GPC3 expression: −0.45
  RNA-seq results: GPC3 expression: 0.06
